The compounds below were run against T1, Recombinant human HSD17B13 enzyme (Homo sapiens, UniProt Q7Z5P4) (assay: HSD17b13 NAD(P)H-Glo biochemical assay). Conditions: 50 uM estradiol, 1 mM NAD+, NAD(P)H-Glo luminescence; read-out: HSD17β13 IC50.
T1 sequence (Q7Z5P4 20-300): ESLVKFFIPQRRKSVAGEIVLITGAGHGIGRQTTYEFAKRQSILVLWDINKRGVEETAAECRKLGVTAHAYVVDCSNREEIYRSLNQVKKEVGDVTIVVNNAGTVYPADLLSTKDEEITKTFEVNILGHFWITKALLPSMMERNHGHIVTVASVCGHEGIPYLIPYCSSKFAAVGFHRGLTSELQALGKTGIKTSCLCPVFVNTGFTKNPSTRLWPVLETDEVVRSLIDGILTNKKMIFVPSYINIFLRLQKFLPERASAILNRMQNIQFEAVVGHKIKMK
How it was run: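 Recombinant human HSD17B13 in 20 mM Tris pH7.4 with 0.002% Tween-20 and 0.02% BSA was preincubated with inhibitor for 20 minutes at RT. The reaction ran 3 hours at 37° C with 50 uM estradiol and 1 mM NAD+ (final). NADH formed was detected by NAD(P)H-Glo luminescence after 1 hour at RT.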

Compound	IC50 [nM]
Cn1nc(-c2cc(C(F)(F)F)c(F)c(O)c2F)c2cnc(N3CC4(CCOCC4)C3)cc21 [Compound 9.10, 2,6-Difluoro-3-(1-methyl-6-(7-oxa-2-azaspiro[3.5]nonan-2-yl)-1H-pyrazolo[4,3-c]pyridin-3-yl)-5-(trifluoromethyl)phenol]	< 100
Cn1nc(-c2cc(C(F)(F)F)c(F)c(O)c2F)c2cnc(N3CCOCC3=O)cc21 [Compound 9.101, 4-(3-(2,4-Difluoro-3-hydroxy-5-(trifluoromethyl)phenyl)-1-methyl-1H-pyrazolo[4,3-c]pyridin-6-yl)morpholin-3-one]	100 to 1000
O=C(NCC1(O)CCC1)c1ccc2oc(-c3cc(C(F)(F)F)c(F)c(O)c3F)nc2c1 [Compound 1.30, 2-(2,4-Difluoro-3-hydroxy-5-(trifluoromethyl)phenyl)-N-((1-hydroxycyclobutyl)methyl)benzo[d] oxazole-5-carboxamide]	100 to 1000
CC1COC2(CCC2)CN1c1cc2c(cn1)c(-c1cc(C(F)(F)F)c(F)c(O)c1F)nn2C (stereo not drawn) [Compound 9.95, 2,6-Difluoro-3-(1-methyl-6-(7-methyl-5-oxa-8-azaspiro[3.5]nonan-8-yl)-1H-pyrazolo[4,3-c]pyridin-3-yl)-5-(trifluoromethyl)phenol]	< 100
Cn1nc(-c2cc(O)c(F)c(C(F)(F)F)c2)c2ccc(N3CCN(S(C)(=O)=O)CC3)cc21 [Compound 9.26, 2-Fluoro-5-(1-methyl-6-(4-(methylsulfonyl)piperazin-1-yl)-1H-indazol-3-yl)-3-(trifluoromethyl)phenol]	100 to 1000
COC1CCN(c2nc3c(cc2F)c(-c2cc(C(F)(F)F)c(F)c(O)c2F)nn3C)CC1 [Compound 9.106, 2,6-Difluoro-3-(5-fluoro-6-(4-methoxypiperidin-1-yl)-1-methyl-1H-pyrazolo[3,4-b]pyridin-3-yl)-5-(trifluoromethyl)phenol]	< 100
Cn1nc(-c2cc(C(F)(F)F)c(F)c(O)c2F)c2cc(F)c(N3CCN(S(C)(=O)=O)CC34CC4)cc21 [Compound 9.117, 2,6-Difluoro-3-(5-fluoro-1-methyl-6-(7-(methylsulfonyl)-4,7-diazaspiro[2.5]octan-4-yl)-1H-indazol-3-yl)-5-(trifluoromethyl)phenol]	< 100
O=C(NC12CC(C1)C2)c1cc2nc(-c3cc(O)c(F)c(C(F)(F)F)c3)oc2cn1 [Compound 1.24, N-(Bicyclo[1.1.1]pentan-1-yl)-2-(4-fluoro-3-hydroxy-5-(trifluoromethyl)phenyl)oxazolo[5,4-c]pyridine-6-carboxamide]	< 100
Cn1nc(-c2cc(C(F)(F)F)c(F)c(O)c2F)c2cnc(N3C[C@H]4CC[C@@H](C3)O4)cc21 [Compound 9.90, 3-(6-(cis-8-Oxa-3-azabicyclo[3.2.1]octan-3-yl)-1-methyl-1H-pyrazolo[4,3-c]pyridin-3-yl)-2,6-difluoro-5-(trifluoromethyl)phenol]	< 100
CN(CC1CC1)c1cc2c(cn1)c(-c1cc(C(F)(F)F)c(F)c(O)c1F)nn2C [Compound 9.11, 3-(6-((Cyclopropylmethyl) (methyl)amino)-1-methyl-1H-pyrazolo[4,3-c]pyridin-3-yl)-2,6-difluoro-5-(trifluoromethyl)phenol]	< 100
Cn1nc(-c2cc(C(F)(F)F)c(F)c(O)c2F)c2cnc(N3CCS(=O)(=O)CC3C3CC3)cc21 (stereo not drawn) [Compound 9.126, 3-Cyclopropyl-4-(3-(2,4-difluoro-3-hydroxy-5-(trifluoromethyl)phenyl)-1-methyl-1H-pyrazolo[4,3-c]pyridin-6-yl)thiomorpholine 1,1-dioxide]	< 100
Cn1nc(-c2ccc(F)c(O)c2F)c2cnc(N3CCOC4(CCC4)C3)cc21 [Compound 9.109, 2,6-Difluoro-3-(1-methyl-6-(5-oxa-8-azaspiro[3.5]nonan-8-yl)-1H-pyrazolo[4,3-c]pyridin-3-yl)phenol]	100 to 1000
Cn1nc(-c2cc(C(F)(F)F)c(F)c(O)c2F)c2cnc(N3CCC(O)CC34CC4)cc21 (stereo not drawn) [Compound 9.49, 4-(3-(2,4-Difluoro-3-hydroxy-5-(trifluoromethyl)phenyl)-1-methyl-1H-pyrazolo[4,3-c]pyridin-6-yl)-4-azaspiro [2.5]octan-7-ol]	< 100
Cn1nc(-c2cc(C(F)(F)F)c(F)c(O)c2F)c2cnc(N3CCOC4(CC4)C3)cc21 [Compound 9.48, 2,6-Difluoro-3-(1-methyl-6-(4-oxa-7-azaspiro[2.5]octan-7-yl)-1H-pyrazolo[4,3-c]pyridin-3-yl)-5-(trifluoromethyl)phenol]	< 100
Cn1nc(-c2cc(C(F)(F)F)c(F)c(O)c2F)c2cnc(N3CCOCC34CCC4)nc21 [Compound 9.110, 2,6-Difluoro-3-(1-methyl-6-(8-oxa-5-azaspiro[3.5]nonan-5-yl)-1H-pyrazolo[3,4-d]pyrimidin-3-yl)-5-(trifluoromethyl)phenol]	< 100
CS(=O)(=O)N1CCN(c2ccc3c(-c4cc(C(F)(F)F)cc(O)c4F)n[nH]c3c2)CC1 [Compound 11, 2-Fluoro-3-(6-(4-(methylsulfonyl)piperazin-1-yl)-1H-indazol-3-yl)-5-(trifluoromethyl)phenol]	1000 to 30000
CS(=O)(=O)N1CCN(c2ccc3oc(-c4cc(C(F)(F)F)c(F)c(O)c4F)nc3c2)CC1 [Compound 7, 2,6-Difluoro-3-(5-(4-(methylsulfonyl)piperazin-1-yl)benzo[d]oxazol-2-yl)-5-(trifluoromethyl)phenol]	100 to 1000
CO[C@H]1C[C@H](NC(=O)c2ccc3oc(-c4cc(C(F)(F)F)c(F)c(O)c4F)nc3c2)C1 [Compound 1.16, 2-(2,4-Difluoro-3-hydroxy-5-(trifluoromethyl)phenyl)-N-(trans-3-methoxycyclobutyl)benzo[d]oxazole-5-carboxamide]	100 to 1000
CN(c1ccc2c(-c3cc(C(F)(F)F)c(F)c(O)c3F)nn(C)c2n1)C1CCOCC1 [Compound 9.40, 2,6-Difluoro-3-(1-methyl-6-(methyl(tetrahydro-2H-pyran-4-yl)amino)-1H-pyrazolo[3,4-b]pyridin-3-yl)-5-(trifluoromethyl)phenol]	< 100
N#CCC1(NC(=O)c2ccc3oc(-c4cc(C(F)(F)F)c(F)c(O)c4F)nc3c2)CCC1 [Compound 1.29, N-(1-(Cyanomethyl)cyclobutyl)-2-(2,4-difluoro-3-hydroxy-5-(trifluoromethyl)phenyl)benzo[d]oxa-zole-5-carboxamide]	< 100

Next, values leading:

IC50 [nM]	Compound
100 to 1000	CS(=O)(=O)N1CCN(c2cc3[nH]nc(-c4cc(C(F)(F)F)cc(O)c4F)c3cn2)CC1 [Compound 11.02, 2-Fluoro-3-(6-(4-(methylsulfonyl)piperazin-1-yl)-1H-pyrazolo[4,3-c]pyridin-3-yl)-5-(trifluoromethyl)phenol]
< 100	CN(c1cc2[nH]nc(-c3cc(C(F)(F)F)c(F)c(O)c3F)c2cn1)C1CCOCC1 [Compound 11.04, 2,6-Difluoro-3-(6-(methyl(tetrahydro-2H-pyran-4-yl)amino)-1H-pyrazolo[4,3-c]pyridin-3-yl)-5-(trifluoromethyl)phenol]
1000 to 30000	Cn1nc(-c2cc(C(F)(F)F)c(F)c(O)c2F)c2cnc(N3CCOCC3C(=O)O)nc21 (stereo not drawn) [Compound 18.38, 4-(3-(2,4-Difluoro-3-hydroxy-5-(trifluoromethyl)phenyl)-1-methyl-1H-pyrazolo[3,4-d]pyrimidin-6-yl)morpholine-3-carboxylic Acid]
< 100	CC(=O)NC1CCN(c2ncc3c(-c4cc(C(F)(F)F)c(F)c(O)c4F)nn(C)c3n2)CC1 [Compound 18.22, N-(1-(3-(2,4-Difluoro-3-hydroxy-5-(trifluoromethyl)phenyl)-1-methyl-1H-pyrazolo[3,4-d]pyrimidin-6-y1)piperidin-4-yl)acetamide]
100 to 1000	CC(C)N1CCN(c2ncc3c(-c4cc(C(F)(F)F)c(F)c(O)c4F)nn(C)c3n2)CC1 [Compound 18.73, 2,6-Difluoro-3-(6-(4-isopropylpiperazin-1-yl)-1-methyl-1H-pyrazolo[3,4-d]pyrimidin-3-yl)-5-(trifluoromethyl)phenol]
< 100	CN(c1ncc2c(-c3cc(C(F)(F)F)c(F)c(O)c3F)nn(C)c2n1)C1CC1 [Compound 12.04, 3-(6-(Cyclopropyl(methyl)amino)-1-methyl-1H-pyrazolo[3,4-d]pyrimidin-3-yl)-2,6-difluoro-5-(trifluoromethyl)phenol]
1000 to 30000	Cn1nc(-c2cc(C(F)(F)F)c(F)c(O)c2F)c2cnc(N3CCOC(CC(=O)O)C3)nc21 (stereo not drawn) [Compound 18.57, 2-(4-(3-(2,4-Difluoro-3-hydroxy-5-(trifluoromethyl)phenyl)-1-methyl-1H-pyrazolo[3,4-d]pyrimidin-6-yl)morpholin-2-yl)acetic Acid]
< 100	COC1CCCN(c2ncc3c(-c4cc(C(F)(F)F)c(F)c(O)c4F)nn(C)c3n2)C1 (stereo not drawn) [Compound 18.06, 2,6-Difluoro-3-(6-(3-methoxypiperidin-1-yl)-1-methyl-1H-pyrazolo[3,4-d]pyrimidin-3-yl)-5-(trifluoromethyl)phenol]
< 100	Cn1nc(-c2cc(C(F)(F)F)c(F)c(O)c2F)c2cnc(N3CCC(O)(CO)CC3)nc21 [Compound 18.91, 1-(3-(2,4-Difluoro-3-hydroxy-5-(trifluoromethyl)phenyl)-1-methyl-1H-pyrazolo[3,4-d]pyrimidin-6-yl)-4-(hydroxymethyl)piperidin-4-ol]

Same assay, conditions: at 30 uM compound; read-out: HSD17β13 % inhibition at 30 uM

inhibition at 30 µM [%]	Compound
20	Cc1cc(-c2nc3cc(C(=O)NC4CCC4)ccc3o2)cc(O)c1F [Compound 2.02, N-Cyclobutyl-2-(4-fluoro-3-hydroxy-5-methylphenyl)benzo[d]oxazole-5-carboxamide]
